# Test results from a melting point compilation (Tetko et al.).
row,SMILES,melting point [°C]
1,C=C(C)C=O,-81
2,O=C(O)C1(O)CC1,108 to 110
3,O=c1nc(SCc2ccc(Cl)cc2)c2c([nH]1)CCCC2,287 to 289
4,COc1ccccc1N/N=C(\C#N)c1nc2ccccc2n1C,200 to 202
5,N=C(N)NCC(=O)O,300
6,Cn1cc(C=O)c2ccccc21,69
7,c1ccc(/N=N/c2ccccc2/N=N/c2ccccc2)cc1,111
8,CCOC(=O)C(C)=O,-50
9,CN1CCN(C(=O)OC2c3nccnc3C(=O)N2c2ccc(Cl)cn2)CC1 (stereo unspecified),178
10,CC(=CC=Cc1ccccc1)C(=O)OC(=O)C(C)=CC=Cc1ccccc1,112 to 113
11,CC(=O)OC1CC[C@@]2(C)C(CC[C@@H]3[C@@H]2CC[C@@]2(C)[C@H]3CC[C@]2(O)CCc2ccccc2)C1 (stereo partly specified),137 to 139
12,OCCN(CCO)C(CO)(CO)CO,104
13,Clc1ccc(Oc2ccc(Cl)cc2)cc1,30
14,CC(CCC(=O)O)C1CCC2C3C(=O)CC4CC(C(=O)O)CCC4(C)C3CC(C(=O)O)C12C (stereo unspecified),207 to 209
15,Cc1c(NC=C2C(=O)NN=C2c2c(O)c3ccccc3n(C)c2=O)c(=O)n(-c2ccccc2)n1C,175
16,O=C(O)C(O)c1ccc(Cl)cc1 (stereo unspecified),120
17,COc1ccc(OC)c(C(=O)CBr)c1,83 to 88
18,O=C1C=C(N2CC2)C(=O)C(N2CC2)=C1N1CC1,163
19,FC(Cl)=C(F)Cl,-130
20,Sc1ncnc2c1cnn2-c1ccccc1,286 to 288
21,O=C1CCCC(O)=C1Cl,198 to 204
22,O=C=Nc1ccc(OC2CCOCC2)nc1,68.5 to 70.5
23,O[C@@H]1CCCC[C@H]1NCc1ccccc1 (relative stereo),69 to 72

row,SMILES,melting point [°C]
1,CCCCCCCCCCOc1ccc(C(C)=O)cc1,35 to 37
2,CN1CCN(Cc2cccc(CO)c2)CC1,51 to 52
3,Ic1cn[nH]c1,109
4,CCC(C)(C)[C@H]1CC[C@H](O)CC1,26
5,COc1ccc(-c2nn3c(COc4ccccc4)nnc3s2)cc1OC,106
6,CC1CS1 (stereo unspecified),-91
7,N#CC(=Cc1ccccc1)C(=O)O,175
8,Oc1c2cccc1Cc1cccc(c1O)Cc1cccc(c1O)Cc1cccc(c1O)Cc1cccc(c1O)Cc1cccc(c1O)C2,417 to 418
9,Cc1cc(C)c(CSCc2c(C)cc(C)cc2C)c(C)c1,145 to 146
10,OC12CCCCC1c1ccccc12 (stereo unspecified),112
11,Nc1cccc2c1CCCC2,38
12,Nc1cc2ccccc2cn1,154 to 156
13,N#Cc1c(N2CCCC2)nc(N)c2c(-c3ccccc3)cc(-c3ccccc3)nc12,236
14,c1ccc2c(c1)c1cccc3c4c5ccccc5c5cccc(c2c13)c54,305
15,CCOCCCN,-70
16,CC(=O)Nc1ccc([N+](=O)[O-])c(Br)c1,145
17,CC(C)(C)C(=O)CC(=O)C(F)(F)C(F)(F)C(F)(F)F,38
18,CSc1ncnc2c1ncn2C1OC(CO)C(O)C1O (stereo unspecified),164
19,OCC1OC(Oc2ccc(O)cc2)C(O)C(O)C1O (stereo unspecified),200
20,Cc1ccc(-c2cccc(-c3ccc(C)cc3)n2)cc1,165
21,Cc1nc(-c2ccc(S(=O)(=O)NN)cc2)c(-c2ccc(S(=O)(=O)NN)cc2)o1,178 to 180
22,Nc1cc(Cl)cc(C(=O)O)c1Cl,200
23,CN1CCC23c4c5ccc(OCc6ccccc6)c4OC2C(O)C=CC3C1C5 (stereo unspecified),132

row,SMILES,melting point [°C]
1,O=[N+]([O-])C=Cc1ccccc1Cl,48
2,CCCCCCCCCCCCCCCCCC(=O)Cl,23
3,COCCN(C(=O)CCl)c1c(C)cccc1C,46.3
4,OC1CCOc2ccccc21 (stereo unspecified),41 to 45
5,O=C(NC(Cc1cccnc1)C(=O)O)OCC1c2ccccc2-c2ccccc21 (stereo unspecified),166
6,O=S(=O)(O)c1ccc(N=Nc2ccc(N=Nc3ccc(S(=O)(=O)O)cc3)cc2)cc1,157
7,O=C1C(Br)C2c3ccccc3C(C1Br)C(Br)C(=O)C2Br (stereo unspecified),80
8,COc1c(C#N)cc(C)c2c1CCC2,62 to 63
9,OC1Cc2ccccc2C1,70
10,Nc1ccc(Br)c(Cl)c1Cl,75 to 77
11,FC(F)CC(F)(F)F,-102
12,C1COCCOCCOCCO1,16
13,CCCCCCC(C)CCCCCC,-37.2
14,N#CCc1cccc(Cl)c1Cl,66 to 69
15,N=c1oc2ccccc2cc1-c1nc2ccccc2c(=O)[nH]1,275
16,OC[C@H]1OC(Nc2ccccc2)C[C@@H]1O (stereo partly specified),151
17,CCN(CC)C(=O)C(Cl)(Cl)Cl,27
18,CN1C(=O)C(=NNc2ccc(F)cc2)C(=O)N(C)C1=O,191
19,CC(C)(O)C#Cc1ccccn1,83
20,O=Cc1ccsc1,-30
21,CC1(C)N=C(N)C(C)(C)N1O,225 to 228

# Results, then the molecule that gave them:
row,melting point [°C],SMILES
1,56,N#Cc1ccc(F)c(Br)c1
2,151,CCOC(=O)c1nn(-c2ccc(F)cc2)c(-c2cccs2)c1S(=O)(=O)c1ccccc1
3,165,Nc1cc(N)c(C(=O)CI)cc1C(=O)CI
4,37 to 40,COc1ccc(CO)c(OC)c1
5,209,CCCOC(=O)C1=C(C)NC(=S)NC1c1cccc([N+](=O)[O-])c1 (stereo unspecified)
6,91 to 92,NC(=NO)c1cc(F)c(F)cc1F
7,150 to 152,NC(=O)c1cccnc1Oc1ccc(Cl)cc1
8,116,COc1ccc(Br)cc1C=O
9,206,NS(=O)(=O)c1cc2c(cc1Cl)NC(CSCC(F)(F)F)NS2(=O)=O (stereo unspecified)
10,205,O=[N+]([O-])c1ccc(C2Nn3c(nnc3-c3cccc([N+](=O)[O-])c3)S2)cc1 (stereo unspecified)
11,157,COc1ccc([N+](=O)[O-])cc1C(=O)O
12,130,Cc1cccc(C(=O)O)n1
13,176,Cc1cc(C(F)(F)F)n2nc(-c3ccc(Cl)cc3)cc2n1
14,179 to 180,CCOC(=O)C1=NN(c2ccccc2)C(=O)C1=CC1C(=O)N(c2ccccc2)N=C1C(=O)OCC (stereo unspecified)
15,209,CCOc1ccc(C(N)=O)cc1
16,2,CCC(=O)c1cc(C)ccc1O
17,122 to 124,Cn1ccc(-c2ccc(C(=O)Oc3c(F)c(F)c(F)c(F)c3F)cc2)n1
18,93 to 94,CCCC(=O)c1cc2ccccc2oc1=O
19,267 to 270,Cc1ccc2oc(C(=O)O)cc(=O)c2c1
20,215 to 217,O=C(Nc1nnc(-c2ccc(Cl)cc2)o1)c1cccc(C(F)(F)F)c1

row,melting point [°C],SMILES
1,43.5,CCOc1cc(OCC)cc(OCC)c1
2,139 to 140,COC(=O)c1cc2occc2[nH]1
3,30,O=C(Cl)/C=C/c1cccc(C(F)(F)F)c1
4,67,CS(=O)(=O)c1ccc(OC(F)(F)F)cc1
5,150 to 153,O=C(O)c1ccc(Oc2cccnc2)o1
6,125,O=Cc1cccc2cccc([N+](=O)[O-])c12
7,125 to 128,COC(=O)c1sccc1Oc1ccc(Cl)cc1[N+](=O)[O-]
8,47.5,O=Cc1ccnc(Cl)c1
9,229 to 231,CCOC(=O)c1c(C)n(O)c2ccc3nonc3c12
10,270,O=C(O)c1ccc[nH]c1=S
11,56 to 60,Cn1nc(CO)cc1-c1cccs1
12,250,O=C(O)c1ccc2nccn2c1
13,101,Oc1ccc2cccc(Cl)c2c1
14,228,COS(=O)(=O)c1cc([N+](=O)[O-])ccc1C#Cc1ccc([N+](=O)[O-])cc1S(=O)(=O)OC
15,111 to 112,Cc1nc(-c2ccc(S(=O)(=O)Cl)cc2)cs1
16,109,CCOC(=O)C(C#N)c1cc(Cl)c([N+](=O)[O-])cc1[N+](=O)[O-] (stereo unspecified)
17,113 to 115,O=Cc1c[nH]nc1-c1ccc(C(F)(F)F)cc1
18,51,COC(=O)c1ccc(C)c([N+](=O)[O-])c1
19,205 to 209,O=C(C=Cc1ccc(O)c(O)c1)OC1CC(O)(C(=O)O)CC(O)C1O (stereo unspecified)
20,159,O=C(c1ccccc1)C1SC(=S)N(c2ccccc2)C1=O (stereo unspecified)

row,melting point [°C],SMILES
1,107,Cc1cccc(NC(=O)C(C(F)(F)F)C(F)(F)F)n1
2,102,CC(=O)Oc1cccc(N=[N+]([O-])c2cccc(OC(C)=O)c2)c1
3,22,CC(=O)Oc1ccc(C)c(C)c1
4,24 to 27,OC[C@@H](O)COCc1ccccc1
5,-13 to -12,FC(F)(F)c1cc(Cl)cc(Cl)c1
6,127,COC(=O)C1(S(=O)(=O)c2ccc([N+](=O)[O-])cc2)CC1
7,216 to 218,NNC(=O)CN1c2ccccc2Sc2ccccc21
8,22,O=C(OCc1ccccc1)c1cccnc1
9,31.5,CC(C)C(=O)C(=O)O
10,145,CC(C1=CCC(C(=O)O)C(C)(C)O1)(c1ccccc1)c1ccccc1 (stereo unspecified)
11,210,O=[N+]([O-])c1ccc(-c2nnc3n2NC(c2ccco2)S3)cc1 (stereo unspecified)
12,197 to 198,O=[N+]([O-])c1cc2c(cc1C/C(=N/Nc1ccccc1)c1ccccc1)n1n(-c3ccccc3)n21
13,125,O=C(O)c1cc(F)cc([N+](=O)[O-])c1
14,120,CC(C)[C@@H]1CC[C@H](C)C[C@@H]1OC(=O)c1cccc(C(=O)O)n1
15,219,O=C(O)c1ccc(S)cc1
16,77,CCOC(=O)Cc1n[nH]c2ccc(Cl)cc12
17,86 to 87,O=Cc1ccc(-c2ccc(C(F)(F)F)cc2Cl)o1
18,166,O=C(O)c1sccc1-n1cccc1
19,86 to 88,O=S(=O)(Cl)c1csc2ccccc12
